Experiments:
[1] = Electrophysiology tested by the voltage clamp assay using superior cervical ganglion potassium neuron (SCGK); assay type: functional, tissue-based; conditions: Rattus norvegicus
Rattus norvegicus [2] = experiment: Dose given at 15 and 30 mg/kg over 10 min resulting in 50% reduction in the number of flinches per minute when administarted intravenously.; conditions: iv
[3] = Electrophysiology tested by the voltage clamp assay using superior cervical ganglion sodium neuron (SCGNa); assay type: functional, tissue-based; conditions: Rattus norvegicus
[4] = Electrophysiology tested by the voltage clamp assay using superior cervical ganglion calcium neuron (SCGCa); assay type: functional, tissue-based; conditions: Rattus norvegicus
Mus musculus = experiment: Intravenous administration of dose required to prevent clonic seizures and tonic extension seizure of forelimbs and hindlimbs; assay type: functional; conditions: Hindlimb
Rattus norvegicus [5] = experiment: Oral administration of dose resulting in 50% reduction in the number of flinches per minute
Rattus norvegicus [6] = species: Rattus norvegicus; experiment: Intrathecal bolus injection of 12.5-100 microg of dose resulting in 50% reduction in the amount of foot withdraw responding to repeated mechanical stimuli
[7] = Intravenous administration of dose resulting in 50% reduction in the number of writhes in male CF-1 mice.; assay type: functional; conditions: Mus musculus
[8] = molecular target: Voltage-gated L-type calcium channel (Rattus norvegicus, UniProt P22002+Q02485+P27732); experiment: L-type calcium channel blockade in A10 smooth muscle cells by Oregon Green 488 Bapta-1 dye; assay type: functional, cell-based

Work on `CN[C@@H](CC(C)C)C(=O)NCCCC(c1ccc(F)cc1)c1ccc(F)cc1.Cl` yielded an IC50 [1] of 9.9 µM, an ED50 (Rattus norvegicus [2]) of 16 mg/kg and an IC50 [3] of 5.1 µM. The IC50 [4] was 1.3 µM, the ED50 (Mus musculus) was 4.05 mg/kg and the ED50 (Rattus norvegicus [5]) was 87 mg/kg. It also gave an ED50 (Rattus norvegicus [6]) of 23 µg, an ED50 [7] of 4.46 mg/kg and an IC50 [8] of 0.4 µM.
